Measured values as given in US5852007A, “Cysteine and serine protease inhibitors containing D-amino acid at the P2 position, methods of making same, and methods of using same” (priority 1997, dated 1998).
Square brackets hold non-standard residues; d marks the D form. Peptide text beside a SMILES is read from it. * marks the point of attachment. ξ: configuration not given here. ξF = NC(Cc1ccccc1)C(=O)O; Bn = c1ccc(C*)cc1; Ms = CS(=O)(=O)*; CH2F = FC*

Legend:
[1] = target: T1, Recombinant human calpain I (Homo sapiens, UniProt P07384); test: Rate of inactivation of calpain I (second order rate constant); format: biochemical; conditions: Table II, read-out: Calpain Inactivation Rates
T1 construct: made in house
T1 sequence (P07384 1-714): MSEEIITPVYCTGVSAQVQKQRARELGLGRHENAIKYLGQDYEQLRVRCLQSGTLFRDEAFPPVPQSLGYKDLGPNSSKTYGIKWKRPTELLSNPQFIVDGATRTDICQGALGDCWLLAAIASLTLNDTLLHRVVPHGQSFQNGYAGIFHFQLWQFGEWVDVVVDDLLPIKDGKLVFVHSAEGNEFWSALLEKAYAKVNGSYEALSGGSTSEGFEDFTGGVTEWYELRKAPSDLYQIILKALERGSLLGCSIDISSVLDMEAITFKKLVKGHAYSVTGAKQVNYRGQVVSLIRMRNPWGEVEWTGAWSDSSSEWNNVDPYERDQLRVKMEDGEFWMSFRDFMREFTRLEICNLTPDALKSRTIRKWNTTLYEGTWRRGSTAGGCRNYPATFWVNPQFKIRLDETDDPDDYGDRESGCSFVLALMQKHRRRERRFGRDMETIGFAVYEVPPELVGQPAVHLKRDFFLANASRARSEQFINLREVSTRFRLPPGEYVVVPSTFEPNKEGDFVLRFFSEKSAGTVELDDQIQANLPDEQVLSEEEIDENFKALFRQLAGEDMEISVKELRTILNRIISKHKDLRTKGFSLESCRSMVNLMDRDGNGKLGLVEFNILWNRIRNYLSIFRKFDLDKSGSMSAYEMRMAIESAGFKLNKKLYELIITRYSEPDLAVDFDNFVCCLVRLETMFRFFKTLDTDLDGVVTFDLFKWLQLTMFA
Procedure: To evaluate inhibitory activity, stock solutions (40 times concentrated) of exemplary compounds of the invention were prepared in 100% anhydrous DMSO and 5 μL of each inhibitor preparation were aliquoted into each of three wells of a 96-well plate. Recombinant human calpain I, prepared by the method of Meyer et al. (Biochem. J. 314: 511-519 (1996)), was diluted into assay buffer (i.e., 50 mM Tris, 50 mM NaCl, 1 mM EDTA, 1 mM EGTA, and 5 mM-mercaptoethanol, pH 7.5 including 0.2 mM Succ-Leu-TyrMNA) and 175 μL aliquoted into the same wells containing the independent inhibitor stocks as well as to positive control wells containing 5 μL DMSO, but no compound. To start the reaction, 20 μL of 50 mM CaCl2 in assay buffer was added to all wells of the plate, excepting three, which were used as background signal baseline controls. Substrate hydrolysis was monitored every 5 minutes for a total of 30 minutes. Substrate hydrolysis in the absence of inhibitor was linear for up to 15 minutes.
Inhibition of calpain I activity was calculated as the percent decrease in the rate of substrate hydrolysis in the presence of inhibitor (VI) relative to the rate in its absence (VO). Comparison between VO and VI was made within the linear range for substrate hydrolysis. For screening, compounds were tested at 10, 1.0, and 0.1 μM. Compounds having 50% inhibition at 10 μM were considered active. […] The results were plotted as % inhibition versus log inhibitor concentration and the IC50 was calculated from linear regression of the data. Apparent second order rate constants were determined from analysis of reaction progress curves under pseudo-first order conditions. Each determination represents the means of three or more independent single cuvette analyses continually monitored via a Perkin-Elmer LS50B spectrofluorimeter. […]
where y is the product formed at time t. […] The apparent second order rate constant kapp was determined as Kobs /[I]. […]

thrombin = target: T2, thrombin (Homo sapiens, UniProt P00734); test: Inhibition of thrombin; format: biochemical; conditions: Table II; 10 uM; read-out: Thrombin % I @ 10 uM
T2 construct: purchased Sigma Chem. Co. T-7009

α-chymotrypsin = target: T3, α-chymotrypsin (Bos taurus, UniProt P00766); test: Inhibition of α-chymotrypsin; format: biochemical; conditions: Table II; 10 uM; read-out: Chymotrypsin % I @ 10 uM
T3 construct: purchased Sigma Chem. Co. C-3142
Procedure, shortened: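 Enzyme added to inhibitor first, then reaction started with substrate; no calcium activation needed as enzyme is constitutively active. Fluorogenic substrate hydrolysis read every 5 min up to 30 min ([…]).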

cathepsin L = target: T4, cathepsin L (Homo sapiens, UniProt P07711); test: Inhibition of cathepsin L; format: biochemical; conditions: Table II; read-out: Cat L IC50
T4 construct: purchased Calbiochem 219402
T4 sequence (P07711 114-288 limits assumed): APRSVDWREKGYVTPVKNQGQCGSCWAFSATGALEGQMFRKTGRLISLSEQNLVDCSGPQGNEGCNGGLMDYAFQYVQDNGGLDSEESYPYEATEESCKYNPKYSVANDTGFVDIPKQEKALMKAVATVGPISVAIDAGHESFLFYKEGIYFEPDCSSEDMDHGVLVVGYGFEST
T4 sequence (P07711 292-333 limits assumed): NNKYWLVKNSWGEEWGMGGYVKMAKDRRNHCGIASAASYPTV
Procedure: (§1) Additionally,the order of reagents added to the plate was altered because both enzymes are constitutively active. Following inhibitor addition to the plates, appropriate 2× concentrated stock dilutions of the enzyme preparations were made in assay buffer and 100 μl added to each well. The assay was initiated by addition of 100 μl of 2× concentrated stock dilution of substrate in assay buffer.

[2] = target: T1, Recombinant human calpain I; test: Inhibition of calpain I activity; format: biochemical; conditions: Table II
cathepsin B = target: T5, cathepsin B (Homo sapiens, UniProt P07858); test: Inhibition of cathepsin B; format: biochemical; conditions: Table II; read-out: Cat B IC50
T5 construct: purchased Calbiochem 219364
Procedure: as §1

spectrin breakdown = test: Spectrin breakdown in gerbil global ischemia model (CA1 hippocampal sector, Western blotting); format: in vivo; conditions: FIG. 1
Procedure: Gerbils were anesthetized using 4% isolflurane volatilized using a gas mixture consisting of 30% O2 and 70% N2. After the induction of anesthesia, a preferred compound of the invention, compound 40 (Example 34), was administered either immediately before the induction of ischemia and 24 hours after the initiation of reperfusion (FIG. 2), or three hours after the initiation of reperfusion and 24 hours after the initiation of reperfusion (FIG. 3). To induce ischemia, the common carotid arteries were exposed and occluded bilaterally for 7 minutes. Gerbil core temperature was carefully regulated at 38° C. by a thermostatically controlled heat lamp. Reperfusion was initiated by the release of the arterial occlusion, whereupon anesthesia was terminated so that the gerbils began to breath room air. The neck incision was closed, and the gerbils were returned to the incubator for one hour to maintain their core temperature. At 1 hour of reperfusion, anesthesia was induced by inhalation of CO2 and the gerbils were sacrificed. The CA1 hippocampal sector was dissected using a hole punch (0.3 mm), and spectrin breakdown products (BDP) were determined by Western Blotting. Spectrin breakdown was quantified by image analysis, and percent inhibition was calculated by integrated optical density. […]

hippocampal CA1 neurons = test: Survival of hippocampal CA1 neurons in gerbil global ischemia model; format: in vivo
Procedure: Gerbils were anesthetized using 4% isolflurane volatilized using a gas mixture consisting of 30% O2 and 70% N2. […] To induce ischemia, the common carotid arteries were exposed and occluded bilaterally for 7 minutes. Gerbil core temperature was carefully regulated at 38° C. by a thermostatically controlled heat lamp. Reperfusion was initiated by the release of the arterial occlusion, whereupon anesthesia was terminated so that the gerbils began to breath room air. The neck incision was closed, and the gerbils were returned to the incubator for one hour to maintain their core temperature. At 1 hour of reperfusion, anesthesia was induced by inhalation of CO2 and the gerbils were sacrificed.
To quantify histopathological damage, the gerbils were returned to their home cages after one hour reperfusion in the incubator and then sacrificed, as described above, four days later. The brains were rapidly removed, frozen on dry ice, and then sectioned using a cryostat. Twenty micron sections were stained with thionin, and surviving neurons in the hippocampal CA1 sector were counted using computer assisted image analysis.

| kinact/KI [1] [M⁻¹ s⁻¹] | inhibition at 10 µM (thrombin) [%] | inhibition at 10 µM (α-chymotrypsin) [%] | IC50 (cathepsin L) [µM] | SMILES | IC50 [2] [µM] | IC50 (cathepsin B) [µM] | reduction of spectrin breakdown (spectrin breakdown) | suppression of spectrin breakdown in CA1 hippocampal sectors (spectrin breakdown; vs vehicle-treated control gerbils, p<0.0001) | number of surviving hippocampal CA1 neurons relative to controls (hippocampal CA1 neurons; dosed immediately before ischemia and 24 hours after initiation of reperfusion, FIG. 2) | neuroprotection at four days after the ischemic insult (hippocampal CA1 neurons; dosed immediately before ischemia and 24 hours after initiation of reperfusion, p<0.01, FIG. 2) | neuroprotective effect (hippocampal CA1 neurons; dosed three hours and 24 hours after initiation of reperfusion, p<0.02, FIG. 3) |
| --- | --- | --- | --- | --- | --- | --- | --- | --- | --- | --- | --- |
| 26600 | 0 | 14 |  | CS(=O)(=O)N[C@H](CSCc1ccccc1)C(=O)NC(Cc1ccccc1)C(=O)CF (stereo partly drawn) [Compound 33, BnS--CH2 CH(NHS(=O)2 CH3)C(=O)-Phe--CH2] (Ms-[dC](Bn)-[ξF]-CH2F) |  |  |  |  |  |  |  |
| 2800 | 0 | 7 | 1.8 | CS(=O)(=O)N[C@H](CC(=O)N1CCc2ccccc2C1)C(=O)NC(Cc1ccccc1)C(=O)CF (stereo partly drawn) [Compound 20, THIQ-2-C(=O)CH2 CH(NHS(=O)2 CH3)C(=O)-Phe--CH2 F] |  |  |  |  |  |  |  |
| 21000 | 0 | 14 | 1.8 | CS(=O)(=O)N[C@H](COCc1ccccc1)C(=O)NC(Cc1ccccc1)C(=O)CF (stereo partly drawn) [Compound 34, BnO--CH2 CH(NHS(=O)2 CH3)C(=O)-Phe--CH2] |  |  |  |  |  |  |  |

| SMILES | kinact/KI [1] [M⁻¹ s⁻¹] | inhibition at 10 µM (thrombin) [%] | inhibition at 10 µM (α-chymotrypsin) [%] | IC50 (cathepsin L) [µM] | IC50 [2] [µM] | IC50 (cathepsin B) [µM] | reduction of spectrin breakdown (spectrin breakdown) | suppression of spectrin breakdown in CA1 hippocampal sectors (spectrin breakdown; vs vehicle-treated control gerbils, p<0.0001) | number of surviving hippocampal CA1 neurons relative to controls (hippocampal CA1 neurons; dosed immediately before ischemia and 24 hours after initiation of reperfusion, FIG. 2) | neuroprotection at four days after the ischemic insult (hippocampal CA1 neurons; dosed immediately before ischemia and 24 hours after initiation of reperfusion, p<0.01, FIG. 2) | neuroprotective effect (hippocampal CA1 neurons; dosed three hours and 24 hours after initiation of reperfusion, p<0.02, FIG. 3) |
| --- | --- | --- | --- | --- | --- | --- | --- | --- | --- | --- | --- |
| CS(=O)(=O)N[C@H](COCc1ccccc1)C(=O)N[C@H](C=O)Cc1ccccc1 [Compound 40, BnO--CH2 CH(NHS(=O)2 CH3)C(=O)-Phe--H] |  | 0 | 23 | 0.009 | 0.011 | 0.042 | approximately 50% | statistically significant suppression of spectrin breakdown | more than doubled the number of surviving hippocampal CA1 neurons | neuroprotective at four days after the ischemic insult | neuroprotective effect |
